Test system: 435261-313-R-J1-PDC complex spheroid viability
Experiment: Anticancer human tumor 435261-313-R-J1-PDC patient-derived colon adenocarcinoma cell line growth inhibition [GQUAD]
Settings: for IC50: curve of first compound; for viability, T/C: stronger effect = lower value
Method in brief: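 Viability of tumor cells grown as complex spheroids with endothelial and stromal cells, exposed to drug combinations. Top concentration at or near clinical Cmax (else 10 microM), diluted in half-log increments.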

[1] = second compound 0.0316 µM, first compound 0.0316 µM
[2] = second compound 0.0316 µM, first compound 0.1 µM
[3] = second compound 0.0316 µM, first compound 0.316 µM
[4] = second compound 0.0316 µM, first compound 1 µM
[5] = second compound 0.0316 µM, first compound 3.16 µM
[6] = second compound 0.0316 µM, first compound 10 µM
[7] = second compound 0.1 µM, first compound 0.0316 µM
[8] = second compound 0.1 µM, first compound 0.1 µM
[9] = second compound 0.1 µM, first compound 0.316 µM
[10] = second compound 0.1 µM, first compound 1 µM
[11] = second compound 0.1 µM, first compound 3.16 µM
[12] = second compound 0.1 µM, first compound 10 µM
[13] = second compound 0.316 µM, first compound 0.0316 µM
[14] = second compound 0.316 µM, first compound 0.1 µM
[15] = second compound 0.316 µM, first compound 0.316 µM
[16] = second compound 0.316 µM, first compound 1 µM
[17] = second compound 0.316 µM, first compound 3.16 µM
[18] = second compound 0.316 µM, first compound 10 µM
[19] = second compound 1 µM, first compound 0.0316 µM
[20] = second compound 1 µM, first compound 0.1 µM
[21] = second compound 1 µM, first compound 0.316 µM
[22] = second compound 1 µM, first compound 1 µM
[23] = second compound 1 µM, first compound 3.16 µM
[24] = second compound 1 µM, first compound 10 µM
[25] = second compound 3.16 µM, first compound 0.0316 µM
[26] = second compound 3.16 µM, first compound 0.1 µM
[27] = second compound 3.16 µM, first compound 0.316 µM
[28] = second compound 3.16 µM, first compound 1 µM
[29] = second compound 3.16 µM, first compound 3.16 µM
[30] = second compound 3.16 µM, first compound 10 µM
[31] = second compound 10 µM, first compound 0.0316 µM
[32] = second compound 10 µM, first compound 0.1 µM
[33] = second compound 10 µM, first compound 0.316 µM
[34] = second compound 10 µM, first compound 1 µM
[35] = second compound 10 µM, first compound 3.16 µM
[36] = second compound 10 µM, first compound 10 µM
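Also: spheroids exposed to the agents for seven days before readout.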
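For viability, T/C in this document: percent of vehicle control viability with DMSO wells as 100%.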

CC(=O)O[C@H]1C(=O)[C@@]2(C)[C@H]([C@H](OC(=O)c3ccccc3)[C@]3(O)C[C@H](OC(=O)[C@H](O)[C@@H](NC(=O)c4ccccc4)c4ccccc4)C(C)=C1C3(C)C)[C@]1(OC(C)=O)CO[C@@H]1C[C@@H]2O + Cc1cnc(CNC(=O)c2c(=O)c3ccc(N4CCCN(C)CC4)nc3n3c2sc2ccccc23)cn1
IC50 (second compound 0.0316 µM): 825 nM
IC50 (second compound 0.1 µM): > 10000 nM
IC50 (second compound 0.316 µM): 5200 nM
IC50 (second compound 1 µM): < 31.6 nM
IC50 (second compound 3.16 µM): < 31.6 nM
IC50 (second compound 10 µM): < 31.6 nM
viability, T/C [1]: 66.7%
viability, T/C [2]: 58.1%
viability, T/C [3]: 56.9%
viability, T/C [4]: 40.8%
viability, T/C [5]: 54.3%
viability, T/C [6]: 48.4%
viability, T/C [7]: 54.5%
viability, T/C [8]: 54%
viability, T/C [9]: 51.5%
viability, T/C [10]: 45.1%
viability, T/C [11]: 57.3%
viability, T/C [12]: 53.6%
viability, T/C [13]: 56.8%
viability, T/C [14]: 55.1%
viability, T/C [15]: 52.7%
viability, T/C [16]: 52.9%
viability, T/C [17]: 53.4%
viability, T/C [18]: 46.8%
viability, T/C [19]: 40.3%
viability, T/C [20]: 41.5%
viability, T/C [21]: 42.3%
viability, T/C [22]: 42.9%
viability, T/C [23]: 45.6%
viability, T/C [24]: 34%
viability, T/C [25]: 10.4%
viability, T/C [26]: 4.44%
viability, T/C [27]: 6.35%
viability, T/C [28]: 12.5%
viability, T/C [29]: 11.3%
viability, T/C [30]: 7.23%
viability, T/C [31]: 0.12%
viability, T/C [32]: 0.16%
viability, T/C [33]: 0.15%
viability, T/C [34]: 0.17%
viability, T/C [35]: 0.2%
viability, T/C [36]: 0.16%

COc1cc(C2c3cc4c(cc3C(OC3OC5COC(C)OC5C(O)C3O)C3COC(=O)C23)OCO4)cc(OC)c1O (stereo not given) + Cc1cnc(CNC(=O)c2c(=O)c3ccc(N4CCCN(C)CC4)nc3n3c2sc2ccccc23)cn1
IC50 (second compound 0.0316 µM): > 10000 nM
IC50 (second compound 0.1 µM): > 10000 nM
IC50 (second compound 0.316 µM): > 10000 nM
IC50 (second compound 1 µM): < 31.6 nM
IC50 (second compound 3.16 µM): < 31.6 nM
IC50 (second compound 10 µM): < 31.6 nM
viability, T/C [1]: 77.6%
viability, T/C [2]: 59.1%
viability, T/C [3]: 60.8%
viability, T/C [4]: 56.3%
viability, T/C [5]: 55%
viability, T/C [6]: 54.2%
viability, T/C [7]: 86.6%
viability, T/C [8]: 63.6%
viability, T/C [9]: 54.2%
viability, T/C [10]: 60.7%
viability, T/C [11]: 47.1%
viability, T/C [12]: 54.5%
viability, T/C [13]: 48.3%
viability, T/C [14]: 60%
viability, T/C [15]: 53.1%
viability, T/C [16]: 53%
viability, T/C [17]: 51.8%
viability, T/C [18]: 50.7%
viability, T/C [19]: 31.6%
viability, T/C [20]: 38.1%
viability, T/C [21]: 39%
viability, T/C [22]: 43%
viability, T/C [23]: 34.3%
viability, T/C [24]: 35.6%
viability, T/C [25]: 16.7%
viability, T/C [26]: 16.3%
viability, T/C [27]: 11.1%
viability, T/C [28]: 12%
viability, T/C [29]: 19.7%
viability, T/C [30]: 5.43%
viability, T/C [31]: 0.14%
viability, T/C [32]: 0.13%
viability, T/C [33]: 0.12%
viability, T/C [34]: 0.12%
viability, T/C [35]: 0.2%
viability, T/C [36]: 0.14%

COc1cccc2c1C(=O)c1c(O)c3c(c(O)c1C2=O)CC(O)(C(=O)CO)CC3OC1CC(N)C(O)C(C)O1 (stereo not given) + Cc1cnc(CNC(=O)c2c(=O)c3ccc(N4CCCN(C)CC4)nc3n3c2sc2ccccc23)cn1
IC50 (second compound 0.0316 µM): 171 nM
IC50 (second compound 0.1 µM): 137 nM
IC50 (second compound 0.316 µM): < 31.6 nM
IC50 (second compound 1 µM): < 31.6 nM
IC50 (second compound 3.16 µM): < 31.6 nM
IC50 (second compound 10 µM): < 31.6 nM
viability, T/C [1]: 66.9%
viability, T/C [2]: 48.1%
viability, T/C [3]: 46.4%
viability, T/C [4]: 26%
viability, T/C [5]: 1.47%
viability, T/C [6]: 2.7%
viability, T/C [7]: 64.9%
viability, T/C [8]: 53.1%
viability, T/C [9]: 37.9%
viability, T/C [10]: 21.9%
viability, T/C [11]: 1.96%
viability, T/C [12]: 2.36%
viability, T/C [13]: 48.4%
viability, T/C [14]: 50.5%
viability, T/C [15]: 44.8%
viability, T/C [16]: 11.5%
viability, T/C [17]: 0.48%
viability, T/C [18]: 1.34%
viability, T/C [19]: 28.8%
viability, T/C [20]: 35.5%
viability, T/C [21]: 26%
viability, T/C [22]: 0.13%
viability, T/C [23]: 0.11%
viability, T/C [24]: 0.36%
viability, T/C [25]: 15.4%
viability, T/C [26]: 19.2%
viability, T/C [27]: 3.74%
viability, T/C [28]: 0.1%
viability, T/C [29]: 0.13%
viability, T/C [30]: 0.2%
viability, T/C [31]: 0.13%
viability, T/C [32]: 0.19%
viability, T/C [33]: 0.2%
viability, T/C [34]: 0.16%
viability, T/C [35]: 0.19%
viability, T/C [36]: 0.19%

Nc1ccn(C2OC(CO)C(O)C2(F)F)c(=O)n1 (stereo not given) + Cc1cnc(CNC(=O)c2c(=O)c3ccc(N4CCCN(C)CC4)nc3n3c2sc2ccccc23)cn1
IC50 (second compound 0.0316 µM): > 10000 nM
IC50 (second compound 0.1 µM): > 10000 nM
IC50 (second compound 0.316 µM): 4260 nM
IC50 (second compound 1 µM): < 31.6 nM
IC50 (second compound 3.16 µM): < 31.6 nM
IC50 (second compound 10 µM): < 31.6 nM
viability, T/C [1]: 85.8%
viability, T/C [2]: 63.4%
viability, T/C [3]: 64.2%
viability, T/C [4]: 59.8%
viability, T/C [5]: 73.4%
viability, T/C [6]: 59.3%
viability, T/C [7]: 62.5%
viability, T/C [8]: 67.5%
viability, T/C [9]: 58.2%
viability, T/C [10]: 79.8%
viability, T/C [11]: 61.6%
viability, T/C [12]: 59.9%
viability, T/C [13]: 64.5%
viability, T/C [14]: 59.7%
viability, T/C [15]: 56.3%
viability, T/C [16]: 56.7%
viability, T/C [17]: 54.4%
viability, T/C [18]: 43.6%
viability, T/C [19]: 51.5%
viability, T/C [20]: 46.9%
viability, T/C [21]: 47.8%
viability, T/C [22]: 52.1%
viability, T/C [23]: 47%
viability, T/C [24]: 28%
viability, T/C [25]: 23.3%
viability, T/C [26]: 26.2%
viability, T/C [27]: 21.9%
viability, T/C [28]: 6.98%
viability, T/C [29]: 14%
viability, T/C [30]: 0.27%
viability, T/C [31]: 0.21%
viability, T/C [32]: 0.2%
viability, T/C [33]: 0.17%
viability, T/C [34]: 0.31%
viability, T/C [35]: 0.2%
viability, T/C [36]: 0.21%

O=c1[nH]cc(F)c(=O)[nH]1 + Cc1cnc(CNC(=O)c2c(=O)c3ccc(N4CCCN(C)CC4)nc3n3c2sc2ccccc23)cn1
IC50 (second compound 0.0316 µM): > 10000 nM
IC50 (second compound 0.1 µM): > 10000 nM
IC50 (second compound 0.316 µM): > 10000 nM
IC50 (second compound 1 µM): < 31.6 nM
IC50 (second compound 3.16 µM): < 31.6 nM
IC50 (second compound 10 µM): < 31.6 nM
viability, T/C [1]: 85.2%
viability, T/C [2]: 68.1%
viability, T/C [3]: 76.1%
viability, T/C [4]: 67.4%
viability, T/C [5]: 81.4%
viability, T/C [6]: 86.7%
viability, T/C [7]: 68.8%
viability, T/C [8]: 64%
viability, T/C [9]: 56.1%
viability, T/C [10]: 65.7%
viability, T/C [11]: 81.9%
viability, T/C [12]: 61.1%
viability, T/C [13]: 57.3%
viability, T/C [14]: 59.5%
viability, T/C [15]: 56.7%
viability, T/C [16]: 56%
viability, T/C [17]: 67%
viability, T/C [18]: 60.6%
viability, T/C [19]: 41.5%
viability, T/C [20]: 45.9%
viability, T/C [21]: 47.6%
viability, T/C [22]: 47%
viability, T/C [23]: 55.1%
viability, T/C [24]: 40.2%
viability, T/C [25]: 20.3%
viability, T/C [26]: 19.4%
viability, T/C [27]: 17.6%
viability, T/C [28]: 24.2%
viability, T/C [29]: 18.9%
viability, T/C [30]: 23.6%
viability, T/C [31]: 0.16%
viability, T/C [32]: 0.18%
viability, T/C [33]: 0.23%
viability, T/C [34]: 0.21%
viability, T/C [35]: 0.23%
viability, T/C [36]: 0.21%
